Data reported in patent US10064797B2, “Topical formulations for UV protection” (TOPGENIX, INC., priority 2014, dated 2018).

Key:
[1] = Photostability: UV absorption spectra before and after UV exposure; assay type: physicochemical; conditions: before vs after UV exposure; 290 nm to 400 nm; FIGS. 2 and 4
Procedure: (§1) In both cases, the absorptivity of these two compounds were studied. In addition, photostability of these two compounds were also assessed by taking a second UV absorption spectra after exposing the compounds to UV. Photostability of sun screening compounds are of critical importance as a compound would be completely ineffective if they lose their UV absorptive qualities shortly after being exposed to solar radiation.
Turning to FIG. 2, this set of spectra show the effects of UV exposure on 3-hydroxy-2-methoxy-cyclo-2-enone, avobenzone, and combinations thereof over a wavelength range of 290 nm and 400 nm. A first spectrum 210 and a second spectrum 212 are for avobenzone before and after UV exposure. A third spectrum 220 and a fourth spectrum 222 are for 3-hydroxy-2-methoxy-cyclo-2-enone before and after UV exposure, respectively. A fifth spectrum 230 and a sixth spectrum 232 correspond to a combination of 3-hydroxy-2-methoxy-cyclo-2-enone and avobenzone at a ratio of 1:2 before and after UV exposure, respectively. Finally, a seventh spectrum 240 and an eighth spectrum 242 correspond to a combination of 3-hydroxy-2-methoxy-cyclo-2-enone and avobenzone at a ratio of 2:1 before and after UV exposure, respectively.
A first spectrum 410 and a second spectrum 412 are for avobenzone before and after UV exposure. […]

[2] = UV absorption spectra of the compounds, avobenzone and their combinations; assay type: physicochemical; conditions: for UV absorption: 320 nm and 400 nm, each compound alone
Procedure: as §1
Avobenzone is an example for a known chemical UV absorber that can be combined.

Compound	change of UV absorption after UV exposure (photostability) [1]	UV absorption ([2]; FIG. 1)	absorbance at 320 nm relative to strongest absorbance ([2]; at 320 nm, FIG. 1)	wavelength of strongest (maximum) UV absorption ([2]; compound alone)
3-Hydroxy-2-methoxy-cyclo-2-enone	dropped overall	relatively low	drops off by approximately half	around 262 nm
COc1ccc(C(=O)CC(=O)c2ccc(C(C)(C)C)cc2)cc1 [avobenzone, reference compound]	dropped overall	relatively low	–	–
